pIC50, pKi: −log10 of the molar value.
Key:
[1] = Mouse PK assay; assay type: in vivo, B6 female mice; settings: for AUC / Cmax: female, B6, mouse, plasma; for AUC / Cmax / Mouse Cmin, po: po; for Cmax: read-out: Mouse Cmax, po ng-h/mL
Method: The pharmacokinetics (e.g., absorption and elimination) of drugs in mice were analyzed using the following experiment. Test compounds were formulated as a suspension in a 30:70 (PEG 400: acidified H2O) vehicle. This solution was administered orally (p.o.) and intraperitoneally (i.p.) at 50 mg/kg to two distinct groups (n=4) of B6 female mice. Blood samples were collected via an orbital bleed at time points: 0 hour (pre-dose), 0.5 hr, 1.0 hr, 2.0 hr, and 4.0 hr post dose. Plasma was obtained from each sample by centrifugation at 2500 rpm for 5 min. Test compound was extracted from the plasma by an organic protein precipitation method. For each time bleed, 50 μL of plasma was combined with 1.0 mL of acetonitrile, vortexed for 2 min. and then spun at 4000 rpm for 15 min. to precipitate the protein and extract out the test compound. Next, the acetonitrile supernatant (the extract containing test compound) was poured into new test tubes and evaporated on a hot plate (25° C.) under a steam of N2 gas. To each tube containing the dried test compound extract, 125 μL of mobile phase (60:40, 0.025 M NH4H2PO4+2.5 mL/L TEA:acetonitrile) was added. The test compound was resuspended in the mobile phase by vortexing and more protein was removed by centrifugation at 4000 rpm for 5 min. Each sample was poured into an HPLC vial for test compound analysis on an Hewlett Packard 1100 series HPLC with UV detection. From each sample, 95 μL was injected onto a Phenomenex-Prodigy reverse phase C-18, 150×3.2 mm column and eluted with a 45-50% acetonitrile gradient run over 10 min. Test-compound plasma concentrations (μg/mL) were determined by a comparison to standard curve (peak area vs. conc. μg/mL) using known concentrations of test compound extracted from plasma samples in the manner described above. Along with the standards and unknowns, three groups (n=4) of quality controls (0.25 μg/mL, 1.5 μg/mL, and 7.5 μg/mL) were run to insure the consistency of the analysis. […] The quantitated test samples were plotted for visual display using Kaleidagraph software and their pharmacokinetic parameters were determined using WIN NONLIN software.

[2] = molecular target: T1, unphosphorylated VEGF-R2Δ50 (FLVK) (Homo sapiens, UniProt P35968, DEL940-989/E990V); assay: VEGF-R2 coupled spectrophotometric assay, unphosphorylated construct (FLVK); assay type: biochemical
T1 construct: VEGF-R2Δ50 contains residues 806-939 and 990-1171; made in house; host or cells: baculovirus/insect cell system
T1 sequence (P35968 with tags, fused parts or gaps DEL940-989/E990V limits assumed): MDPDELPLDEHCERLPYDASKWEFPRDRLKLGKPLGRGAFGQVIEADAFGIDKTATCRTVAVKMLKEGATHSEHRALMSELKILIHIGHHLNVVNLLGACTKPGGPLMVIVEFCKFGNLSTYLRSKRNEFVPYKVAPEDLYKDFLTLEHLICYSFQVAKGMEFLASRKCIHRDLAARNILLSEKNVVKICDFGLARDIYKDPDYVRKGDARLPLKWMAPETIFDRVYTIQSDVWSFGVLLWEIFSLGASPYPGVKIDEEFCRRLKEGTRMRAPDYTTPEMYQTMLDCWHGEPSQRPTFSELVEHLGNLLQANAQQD
In short: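 Continuous coupled assay (PEP, PK, LDH; NADH loss at 340 nm) in 200 mM HEPES pH 7.5 with 3 mM ATP, 20 mM poly(E4Y1), 60 mM MgCl2 plus 2 mM MnCl2, started with 5-40 nM non-autophosphorylated VEGF-R2Δ50. Ki values from activity across compound concentrations, Morrison fit.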

[3] = molecular target: T2, PDGFRβ (Homo sapiens, UniProt P09619); assay: PAE-PDGFRβ phosphorylation in PAE-PDGFRB cells assay; assay type: cell-based; settings: PAE cells overexpressing human PDGFRβ, PDGF-BB stimulated; read-out: PAE PDGFR autophos IC50
T2 construct: expressed in transfected cells; host or cells: porcine aorta endothelial (PAE) cells
T2 sequence (P09619 33-1106): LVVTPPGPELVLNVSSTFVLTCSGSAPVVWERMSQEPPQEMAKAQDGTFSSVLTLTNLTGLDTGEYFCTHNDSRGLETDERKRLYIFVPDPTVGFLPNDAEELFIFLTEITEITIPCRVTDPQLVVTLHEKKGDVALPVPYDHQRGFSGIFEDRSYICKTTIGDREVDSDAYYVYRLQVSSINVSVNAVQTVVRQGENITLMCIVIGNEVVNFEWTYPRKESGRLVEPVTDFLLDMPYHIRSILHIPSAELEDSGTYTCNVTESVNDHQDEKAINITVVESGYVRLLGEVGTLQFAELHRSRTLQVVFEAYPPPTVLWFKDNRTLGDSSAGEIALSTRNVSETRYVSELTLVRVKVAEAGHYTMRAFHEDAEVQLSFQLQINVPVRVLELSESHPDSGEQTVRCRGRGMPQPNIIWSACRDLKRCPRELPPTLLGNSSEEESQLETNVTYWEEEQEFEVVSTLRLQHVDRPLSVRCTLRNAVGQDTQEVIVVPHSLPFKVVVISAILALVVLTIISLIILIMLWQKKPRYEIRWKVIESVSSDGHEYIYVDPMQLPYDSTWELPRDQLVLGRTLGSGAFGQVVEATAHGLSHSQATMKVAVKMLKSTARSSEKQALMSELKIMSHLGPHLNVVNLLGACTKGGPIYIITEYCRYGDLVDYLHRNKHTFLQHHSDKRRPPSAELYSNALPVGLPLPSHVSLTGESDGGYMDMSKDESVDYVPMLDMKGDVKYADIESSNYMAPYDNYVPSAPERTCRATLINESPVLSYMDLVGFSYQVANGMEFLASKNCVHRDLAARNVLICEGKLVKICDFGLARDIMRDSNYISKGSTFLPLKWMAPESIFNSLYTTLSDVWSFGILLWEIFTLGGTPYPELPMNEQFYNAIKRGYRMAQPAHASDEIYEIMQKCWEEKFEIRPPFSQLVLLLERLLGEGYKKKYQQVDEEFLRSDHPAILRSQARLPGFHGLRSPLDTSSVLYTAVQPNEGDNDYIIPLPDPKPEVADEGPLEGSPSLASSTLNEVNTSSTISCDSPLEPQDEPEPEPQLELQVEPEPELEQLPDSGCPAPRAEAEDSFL
Method: This assay determines the ability of a test compound to inhibit the autophosphorylation of PDGFRβ in porcine aorta endothelial (PAE)-PDGFRβ cells. PAE cells that overexpress human PDGFRβ were used in this assay. The cells were cultured in Ham's F12 media supplemented with 10% fetal bovine serum (FBS) and 400 ug/ml G418. Twenty thousands cells were seeded in each well of a 96-well plate in 50 μL of growth media and allowed to attach for 6 hours at 37° C. Cells were then exposed to the starvation media (Ham's F12 media supplemented with 0.1% FBS) for 16 hours. After the starvation period was over, 10 μL of test agent in 5% DMSO in starvation media were added to the test wells and 10 μL of the vehicle (5% DMSO in starvation media) were added into the control wells. The final DMSO concentration in each well was 0.5%. Plates were incubated at 37° C. for 1 hour and the cells were then stimulated with 1 μg/mL PDGF-BB (R & D System) in the presence of 2 mM Na3VO4 for 8 minutes. The cells were washed once with 1 mm Na3VO4 in HBSS and lysed by adding 50 μL per well of lysis buffer. One hundred μL of dilution buffer were then added to each well and the diluted cell lysate was transferred to a 96-well goat ant-rabbit coated plate (Pierce), which was pre-coated with Rabbit anti Human PDGFRβ antibody (Santa Cruz). The plates were incubated at room temperature for 2 hours and washed seven times with 1% Tween 20 in PBS. HRP-PY20 (Santa Cruz) was diluted and added to the plate for a 30-minute incubation. Plates were then washed again and TMB peroxidase substrate (Kirkegaard & Perry) was added for a 10-minute incubation. One hundred μL of 0.09 N H2SO4 was added into each well of the 96-well plate to stop the reaction. Phosphorylation status was assessed by spectrophotometer reading at 450 nm. IC50 values were calculated by curve fitting using a four-parameter analysis.

[4] = tested on: human umbilical vein endothelial cells (HUVEC); assay: HUVEC+VEGF proliferation assay; assay type: cell-based; settings: VEGF 6 ng/mL, MTT
Method: This assay determines the ability of a test compound to inhibit the growth factor-stimulated proliferation of human umbilical vein endothelial cells (“HUVEC”). HUVEC cells (passage 3-4, Clonetics, Corp.) were thawed into EGM2 culture medium (Clonetics Corp) in T75 flasks. Fresh EGM2 medium was added to the flasks 24 hours later. Four or five days later, cells were exposed to another culture medium (F12K medium supplemented with 10% fetal bovine serum (FBS), 60 μg/mL endothelial cell growth supplement (ECGS), and 0.1 mg/mL heparin). Exponentially-growing HUVEC cells were used in experiments thereafter. Ten to twelve thousand HUVEC cells were plated in 96-well dishes in 100 μl of rich, culture medium (described above). The cells were allowed to attach for 24 hours in this medium. The medium was then removed by aspiration and 105 μl of starvation media (F12K+1% FBS) was added to each well. After 24 hours, 15 μl of test agent dissolved in 1% DMSO in starvation medium or this vehicle alone was added into each treatment well; the final DMSO concentration was 0.1%. One hour later, 30 μl of VEGF (30 ng/mL) in starvation media was added to all wells except those containing untreated controls; the final VEGF concentration was 6 ng/mL. Cellular proliferation was quantified 72 hours later by MTT dye reduction, at which time cells were exposed for 4 hours MTT (Promega Corp.). Dye reduction was stopped by addition of a stop solution (Promega Corp.) and absorbance at 595 nm was determined on a 96-well spectrophotometer plate reader.

| Compound | AUC ([1]; 50 mg/kg) | Cmax ([1]; 50 mg/kg, p.o., 50 mg/kg) | Mouse Cmin, po [1] | pKi [2] | inhibition at 0.05 µM ([2]; percent inhibition at 50 nM) | pIC50 [3] | pIC50 ([4]; Homo sapiens, HUVEC, 72 h) | Mouse PK AUC, po ng-h/mL ([1]; p.o., 50 mg/kg) | FLVK (% @ 50 (nM)) ([2]; percent inhibition at 50 nM) | pIC50 ([4]; 72 hours) |
| --- | --- | --- | --- | --- | --- | --- | --- | --- | --- | --- |
| CCCNC(=O)n1c(C)cc2cc(Oc3ccnc4cc(C(=O)N5CC[C@@H](N(C)C)C5)sc34)ccc21 [Example 8h, 5-[(2-{[(3R)-3-(Dimethylamino)pyrrolidin-1-yl]carbonyl}thieno[3,2-b]pyridin-7-yl)oxy]-2-methyl-N-propyl-1H-indole-1-carboxamide] | 2390 ng·h/mL | 920 ng/mL | 204 ng/mL | 9.52 | 99% | 7.72 | 9.80 |  |  |  |
| CO[C@H]1CCN(C(=O)c2cc3nccc(Nc4ccc5c(c4)cc(C)n5C(=O)NC4CC4)c3s2)C1 [Example 1f, 5-[2-(3S-Methoxy-pyrrolidine-1-carbonyl)-thieno[3,2-b]pyridin-7-ylamino]-2-methyl-indole-1-carboxylic acid cyclopropylamide] |  |  | 4 ng/mL | 9.68 |  | 6.76 |  | 1837 ng·h/mL | 97% | 9.17 |
| C#CCNC(=O)n1c(C)cc2c(F)c(Oc3ccnc4cc(C(=O)N5CC[C@H](OC)C5)sc34)ccc21 [Example 5g, 4-Fluoro-5-[2-(3S-methoxy-pyrrolidine-1-carbonyl)-thieno[3,2-b]pyridin-7-yloxy]-2-methyl-indole-1-carboxylic acid prop-2-ynylamide] | 1170 ng·h/mL | 321 ng/mL | 65 ng/mL | 9.35 | 99% | 7.95 | 9.82 |  |  |  |
| Cc1cc2cc(Nc3ccnc4cc(C(=O)N5CC[C@@H](O)C5)sc34)ccc2n1C(=O)NC1CC1 [Example 1q, 5-[2-(3R-Hydroxy-pyrrolidine-1-carbonyl)-thieno[3,2-b]pyridin-7-ylamino]-2-methyl-indole-1-carboxylic acid cyclopropylamide] | 6 ng·h/mL | 5 ng/mL | 0 ng/mL | 9.77 | 99% | < 6.00 | 9.32 |  |  |  |
| C#CCNC(=O)n1c(C)cc2c(F)c(Oc3ccnc4cc(C(=O)N5CCC[C@H]5COC)sc34)ccc21 [Example 5c, 4-Fluoro-5-[2-(2S-methoxymethyl-pyrrolidine-1-carbonyl)-thieno[3,2-b]pyridin-7-yloxy]-2-methyl-indole-1-carboxylic acid prop-2-ynylamide] | 36200 ng·h/mL | 19700 ng/mL |  | 9.22 | 99% | 8.11 | 9.94 |  |  |  |

From patent US6833456B2, “Indolyl-urea derivatives of thienopyridines useful as antiangiogenic agents, and methods for their use” (Agouron Pharmaceuticals, Inc., priority 2002, dated 2004)
